The results in this text go back to PMC5701053, “Multicomponent mapping of boron chemotypes furnishes selective enzyme inhibitors” (Nature Communications, 2017).

In assay [1] the target is T1, α/β-hydrolase domain 3 (ABHD3) (Homo sapiens, UniProt Q8WU67).
T1 sequence (Q8WU67 1-409): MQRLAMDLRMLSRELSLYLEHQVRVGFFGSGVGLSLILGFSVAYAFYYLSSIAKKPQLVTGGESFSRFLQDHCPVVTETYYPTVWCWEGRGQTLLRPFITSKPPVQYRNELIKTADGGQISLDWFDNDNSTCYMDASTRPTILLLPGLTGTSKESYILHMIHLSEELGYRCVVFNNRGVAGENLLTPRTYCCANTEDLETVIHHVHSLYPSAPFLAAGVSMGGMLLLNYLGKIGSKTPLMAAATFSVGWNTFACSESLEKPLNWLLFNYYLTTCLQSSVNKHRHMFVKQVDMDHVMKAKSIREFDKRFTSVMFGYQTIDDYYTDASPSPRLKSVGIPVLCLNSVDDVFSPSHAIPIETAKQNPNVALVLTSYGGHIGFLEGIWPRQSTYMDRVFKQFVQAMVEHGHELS
Description: competitive gel-based ABPP (FP-rhodamine) in HEK […] lysate overexpressing human ABHD3; also in situ (IC50 […]) and ABPP-SILAC in SW620 cells. Type of assay: biochemical.

Assay [2] deals with T1, α/β-hydrolase domain 3 (ABHD3). The experiment in a line: competitive gel-based ABPP (mouse brain proteome; follow-up in HEK […] lysates expressing ABHD3). In kind it is cell-based.

As a reminder, the IC50 is the concentration that inhibits the measured activity by half.

With `C[N+]12CC(=O)O[B-]1(CC(C#N)N(Cc1ccc(F)cc1Cl)C(=O)c1ccccc1)OC(=O)C2` (racemic) [4j], the IC50 in assay [1] was found to be 0.14 µM. That is a sub-micromolar value.
For the compound `Cc1ccc(CN(C(=O)c2ccccc2)C(C#N)C[B-]23OC(=O)C[N+]2(C)CC(=O)O3)cc1` (stereo not drawn) [4g], the “competitive gel-based ABPP (mouse brain proteome); follow-up in HEK 293T lysates” value in assay [2] was “Compound 4j appears equipotent with compounds 4h and 4g against ABHD3, but is more selective against ABHD10”.
For `C[N+]12CC(=O)O[B-]1(CC(C#N)N(Cc1ccccc1Cl)C(=O)c1ccccc1)OC(=O)C2` (stereo not drawn) [4h], the “competitive gel-based ABPP (mouse brain proteome); follow-up in HEK 293T lysates” value in assay [2] is “Compound 4j appears equipotent with compounds 4h and 4g against ABHD3, but is more selective against ABHD10”.
